Results on eight compounds are retold here after patent publication US20260092070A1, “INHIBITORS OF CANINE JANUS KINASE AND USES THEREOF” (ANIMOL DISCOVERY, INC., priority 2023, published 2026).

The target in test [1] is Human JAK-2 (Homo sapiens, UniProt O60674). Nature of the test: JAK enzymatic assay (Eurofins KinaseProfiler/IC50Profiler, radiometric), JAK-2. The test is classed as biochemical. Particulars: human JAK-2 enzyme, 9 concentrations; read-out: JAK2 affinity (IC50) category.
Procedure: (§1) All enzyme assays were conducted according to Eurofins Discovery's KinaseProfiler™ and IC50Profiler™ services.
(SEQ ID NO: 2) peptide substrate, 10 mM magnesium acetate and [gamma-33P]-ATP (specific activity and concentration as required). The reaction was initiated by the addition of the Mg/ATP mix. After incubation for 40 minutes at room temperature, the reaction was stopped by the addition of phosphoric acid to a concentration of 0.5%. An aliquot of the reaction was then spotted onto a filter and washed four times for 4 minutes in 0.425% phosphoric acid and once with methanol prior to drying and scintillation counting.
(§2) Data was then imported into an internal application where each data point was expressed as % inhibition based on uninhibited and no enzyme controls.
Test [2] concerns the target T1, Human JAK-3 (Homo sapiens, UniProt P52333).
T1 construct: purchased Eurofins Discovery (KinaseProfiler / IC50Profiler service)
T1 sequence (P52333 1-1124): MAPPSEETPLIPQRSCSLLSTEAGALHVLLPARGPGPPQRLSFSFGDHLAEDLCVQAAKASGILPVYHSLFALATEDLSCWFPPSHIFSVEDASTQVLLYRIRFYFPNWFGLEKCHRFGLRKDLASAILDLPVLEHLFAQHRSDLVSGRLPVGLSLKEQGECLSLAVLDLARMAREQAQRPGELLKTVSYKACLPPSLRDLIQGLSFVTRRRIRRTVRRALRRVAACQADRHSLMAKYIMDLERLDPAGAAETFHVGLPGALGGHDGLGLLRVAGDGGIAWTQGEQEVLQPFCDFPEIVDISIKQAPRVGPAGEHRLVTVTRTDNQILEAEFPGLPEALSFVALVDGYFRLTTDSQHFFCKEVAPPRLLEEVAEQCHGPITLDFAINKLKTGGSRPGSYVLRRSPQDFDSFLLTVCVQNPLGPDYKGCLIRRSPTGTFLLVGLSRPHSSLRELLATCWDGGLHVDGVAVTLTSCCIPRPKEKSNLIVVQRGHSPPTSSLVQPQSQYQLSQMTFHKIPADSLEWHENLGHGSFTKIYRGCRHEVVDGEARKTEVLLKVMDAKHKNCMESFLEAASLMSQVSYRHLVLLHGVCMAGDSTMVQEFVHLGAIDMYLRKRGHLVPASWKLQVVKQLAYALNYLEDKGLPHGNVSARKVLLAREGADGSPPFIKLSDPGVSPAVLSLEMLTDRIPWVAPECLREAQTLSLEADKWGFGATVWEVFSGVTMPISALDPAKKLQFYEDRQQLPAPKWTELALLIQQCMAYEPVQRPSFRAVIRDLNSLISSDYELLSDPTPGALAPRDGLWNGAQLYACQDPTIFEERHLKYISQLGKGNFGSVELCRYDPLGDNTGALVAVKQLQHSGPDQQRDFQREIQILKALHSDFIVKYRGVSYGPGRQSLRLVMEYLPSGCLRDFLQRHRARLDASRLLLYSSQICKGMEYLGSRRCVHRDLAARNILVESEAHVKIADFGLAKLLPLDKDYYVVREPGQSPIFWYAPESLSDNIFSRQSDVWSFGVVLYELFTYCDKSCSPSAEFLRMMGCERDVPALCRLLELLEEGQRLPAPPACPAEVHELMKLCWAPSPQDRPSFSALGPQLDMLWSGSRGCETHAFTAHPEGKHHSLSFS
Nature of the test: JAK enzymatic assay (Eurofins KinaseProfiler/IC50Profiler, radiometric), JAK-3. Particulars: human JAK-3 enzyme, 9 concentrations; read-out: JAK3 affinity (IC50) category. The test is classed as biochemical.
Procedure: as §1
(SEQ ID NO: 3) peptide substrate, 10 mM magnesium acetate and [gamma-33P]-ATP (specific activity and concentration as required). The reaction was initiated by the addition of the Mg/ATP mix. After incubation for 40 minutes at room temperature, the reaction was stopped by the addition of phosphoric acid to a concentration of 0.5%. An aliquot of the reaction was then spotted onto a filter and washed four times for 4 minutes in 0.425% phosphoric acid and once with methanol prior to drying and scintillation counting.
as §2

The target in test [3] is T2, Human TYK-2 (Homo sapiens, UniProt P29597).
T2 construct: purchased Eurofins Discovery (KinaseProfiler / IC50Profiler service)
Nature of the test: JAK enzymatic assay (Eurofins KinaseProfiler/IC50Profiler, radiometric), TYK-2. Type of test: biochemical. Particulars: human TYK-2 enzyme, 9 concentrations; read-out: TYK2 affinity (IC50) category. As for the experimental part:
Human TYK-2 (Uniprot ID: P29597) was incubated with 8 mM MOPS pH 7.0, 0.2 mM EDTA, 250 μM […]

Test [4] has as its target T3, JAK-1 (Homo sapiens, UniProt P23458). Nature of the test: JAK enzymatic assay (Eurofins KinaseProfiler/IC50Profiler, radiometric), JAK-1. The following applies: for JAK1/JAK2 selectivity: selectivity IC50 ratio for JAK1 versus JAK2, human enzymes.
Target sequence in this assay (P23458 whole entry): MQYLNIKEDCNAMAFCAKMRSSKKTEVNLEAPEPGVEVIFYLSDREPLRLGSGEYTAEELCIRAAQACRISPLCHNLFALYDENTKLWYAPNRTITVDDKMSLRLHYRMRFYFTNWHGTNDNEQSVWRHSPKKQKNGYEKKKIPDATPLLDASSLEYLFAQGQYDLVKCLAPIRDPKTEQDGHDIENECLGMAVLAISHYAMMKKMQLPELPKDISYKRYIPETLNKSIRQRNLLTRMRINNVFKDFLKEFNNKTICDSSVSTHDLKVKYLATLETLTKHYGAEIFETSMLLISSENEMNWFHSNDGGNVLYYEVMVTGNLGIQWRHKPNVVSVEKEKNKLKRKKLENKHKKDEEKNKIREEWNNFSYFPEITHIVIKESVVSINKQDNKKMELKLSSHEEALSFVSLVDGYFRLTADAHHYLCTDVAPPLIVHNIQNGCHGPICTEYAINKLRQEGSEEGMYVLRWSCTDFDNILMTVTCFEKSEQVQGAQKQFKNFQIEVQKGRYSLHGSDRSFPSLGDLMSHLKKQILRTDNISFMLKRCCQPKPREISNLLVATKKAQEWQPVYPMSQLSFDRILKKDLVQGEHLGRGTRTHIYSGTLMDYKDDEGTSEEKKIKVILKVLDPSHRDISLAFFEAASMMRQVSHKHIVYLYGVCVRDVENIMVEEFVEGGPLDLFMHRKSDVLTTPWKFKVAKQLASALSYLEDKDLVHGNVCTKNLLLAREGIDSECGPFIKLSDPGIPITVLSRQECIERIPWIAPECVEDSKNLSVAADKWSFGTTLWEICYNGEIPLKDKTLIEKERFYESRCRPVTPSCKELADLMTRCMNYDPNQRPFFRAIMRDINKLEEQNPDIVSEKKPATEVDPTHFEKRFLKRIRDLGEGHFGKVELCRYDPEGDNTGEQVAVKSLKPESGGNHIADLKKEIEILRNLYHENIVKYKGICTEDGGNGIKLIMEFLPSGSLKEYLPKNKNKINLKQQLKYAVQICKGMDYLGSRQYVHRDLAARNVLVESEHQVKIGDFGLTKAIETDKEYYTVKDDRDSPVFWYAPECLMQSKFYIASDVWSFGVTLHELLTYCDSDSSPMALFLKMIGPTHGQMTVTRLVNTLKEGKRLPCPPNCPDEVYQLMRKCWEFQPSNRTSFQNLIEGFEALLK
Procedure: as §1
(SEQ ID NO.: 1) peptide substrate, 10 mM magnesium acetate and [gamma-33P]-ATP (specific activity and concentration as required). The reaction was initiated by the addition of the Mg/ATP mix. After incubation for 40 minutes at room temperature, the reaction was stopped by the addition of phosphoric acid to a concentration of 0.5%. An aliquot of the reaction was then spotted onto a filter and washed four times for 4 minutes in 0.425% phosphoric acid and once with methanol prior to drying and scintillation counting. A known inhibitor, Staurosporine, was used as a positive control for the assay.
Data was then imported into an internal application where each data point was expressed as % inhibition based on uninhibited and no enzyme controls. […] Inhibition values for the JAK enzymes (IC50 values) for each compound were stratified into four groups.
Test [5] deals with cJAK-1. The test is described as follows: Selectivity of oclacitinib among canine JAK subtypes. The test is classed as biochemical.
Test [6] concerns the target T3, JAK-1. Particulars: Gonzales et al., 2014; cited from earlier work.
Target sequence in this assay (P23458 whole entry, species assumed): as the sequence (P23458 whole entry) above
In test [7] the test system is JAK1-dependent cytokines (IL-2, IL-4, IL-6, IL-13, IL-31). Particulars: IL-2, IL-4, IL-6, IL-13 and IL-31; Gonzales et al., 2014; read-out: IC50 for inhibiting the function of JAK1-dependent cytokines; cited from earlier work.

Where two headings read alike, the source gives them in different places. Bounds are passed on as bounds.

Chain of Human JAK-2 (O60674 whole entry): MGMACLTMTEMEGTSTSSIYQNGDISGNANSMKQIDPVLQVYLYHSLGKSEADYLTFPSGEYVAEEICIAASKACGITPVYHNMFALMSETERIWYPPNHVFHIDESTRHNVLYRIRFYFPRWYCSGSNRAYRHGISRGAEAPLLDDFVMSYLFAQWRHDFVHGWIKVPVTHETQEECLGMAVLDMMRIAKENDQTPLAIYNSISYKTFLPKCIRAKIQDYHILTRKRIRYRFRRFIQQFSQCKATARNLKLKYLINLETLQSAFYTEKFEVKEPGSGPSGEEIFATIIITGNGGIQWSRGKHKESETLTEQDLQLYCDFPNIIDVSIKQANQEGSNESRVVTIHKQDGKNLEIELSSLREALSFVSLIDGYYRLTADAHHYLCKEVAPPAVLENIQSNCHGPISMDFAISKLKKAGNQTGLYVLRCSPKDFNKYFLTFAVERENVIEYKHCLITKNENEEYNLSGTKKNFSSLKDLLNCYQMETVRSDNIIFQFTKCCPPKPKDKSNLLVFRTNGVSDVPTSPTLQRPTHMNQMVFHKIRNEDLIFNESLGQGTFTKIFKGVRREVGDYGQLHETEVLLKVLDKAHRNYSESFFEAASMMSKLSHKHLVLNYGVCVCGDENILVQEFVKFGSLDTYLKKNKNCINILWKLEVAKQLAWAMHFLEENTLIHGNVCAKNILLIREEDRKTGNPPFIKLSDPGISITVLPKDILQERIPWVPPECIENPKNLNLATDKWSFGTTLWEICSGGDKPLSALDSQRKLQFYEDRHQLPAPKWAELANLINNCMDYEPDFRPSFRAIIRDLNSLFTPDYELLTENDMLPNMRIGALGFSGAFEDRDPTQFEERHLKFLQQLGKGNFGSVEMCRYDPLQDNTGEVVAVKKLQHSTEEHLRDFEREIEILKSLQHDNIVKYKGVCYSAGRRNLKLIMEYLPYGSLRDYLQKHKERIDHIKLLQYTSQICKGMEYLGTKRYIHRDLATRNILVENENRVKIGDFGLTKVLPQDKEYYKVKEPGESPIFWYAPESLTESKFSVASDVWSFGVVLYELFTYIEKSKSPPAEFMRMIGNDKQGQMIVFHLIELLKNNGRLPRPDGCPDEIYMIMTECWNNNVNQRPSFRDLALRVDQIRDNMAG
T2 sequence (P29597 whole entry): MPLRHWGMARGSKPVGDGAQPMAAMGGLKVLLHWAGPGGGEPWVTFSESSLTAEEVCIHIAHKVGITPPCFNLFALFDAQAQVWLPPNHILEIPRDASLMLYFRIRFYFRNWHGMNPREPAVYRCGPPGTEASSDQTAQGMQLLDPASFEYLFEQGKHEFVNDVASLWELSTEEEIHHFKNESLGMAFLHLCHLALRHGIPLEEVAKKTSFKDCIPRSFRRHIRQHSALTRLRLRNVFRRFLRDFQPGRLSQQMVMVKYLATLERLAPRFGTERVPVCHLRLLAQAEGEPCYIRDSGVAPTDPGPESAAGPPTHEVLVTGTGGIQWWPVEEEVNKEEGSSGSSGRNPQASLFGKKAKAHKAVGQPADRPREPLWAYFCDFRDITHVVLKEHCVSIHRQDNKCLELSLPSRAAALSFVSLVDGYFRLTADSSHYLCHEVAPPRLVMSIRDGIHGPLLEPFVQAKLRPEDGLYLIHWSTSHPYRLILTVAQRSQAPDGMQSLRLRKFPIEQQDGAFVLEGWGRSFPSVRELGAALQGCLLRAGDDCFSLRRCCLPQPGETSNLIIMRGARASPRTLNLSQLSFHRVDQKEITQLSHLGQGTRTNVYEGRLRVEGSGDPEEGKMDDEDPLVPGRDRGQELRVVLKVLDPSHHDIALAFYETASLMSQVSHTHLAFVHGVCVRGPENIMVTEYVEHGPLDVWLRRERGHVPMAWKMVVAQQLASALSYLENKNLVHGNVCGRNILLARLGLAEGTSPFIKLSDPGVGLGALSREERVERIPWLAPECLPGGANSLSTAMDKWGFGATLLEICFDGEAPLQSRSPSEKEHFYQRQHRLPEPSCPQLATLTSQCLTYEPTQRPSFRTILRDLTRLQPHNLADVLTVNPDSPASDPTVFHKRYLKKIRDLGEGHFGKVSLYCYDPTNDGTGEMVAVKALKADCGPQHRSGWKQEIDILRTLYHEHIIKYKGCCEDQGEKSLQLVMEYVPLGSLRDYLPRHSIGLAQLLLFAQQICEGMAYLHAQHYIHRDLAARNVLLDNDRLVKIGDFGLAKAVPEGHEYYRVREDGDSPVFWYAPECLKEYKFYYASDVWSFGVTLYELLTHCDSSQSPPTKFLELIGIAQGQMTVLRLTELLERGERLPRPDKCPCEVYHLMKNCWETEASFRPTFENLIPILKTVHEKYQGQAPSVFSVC

One may read the IC50 as the concentration that gives 50% inhibition. Turning to `CCCCNS(=O)(=O)c1ccc(NC(=O)CN2CCN(c3ncnc4[nH]ccc34)CC2)cc1` [Compound 11, 2-(4-(7H-pyrrolo[2,3-d]pyrimidin-4-yl)piperazin-1-yl)-N-(4-(N-butylsulfamoyl)phenyl)acetamide], the IC50 in test [1] is above 1000 nM; in test [2] it was 500 to 1000 nM; in test [3], above 1000 nM; in test [4], below 250 nM. In addition, the JAK1/JAK2 selectivity in test [4] worked out at 9.

Turning to `CCCNS(=O)(=O)c1ccc(NC(=O)CN2CCN(c3ncnc4[nH]ccc34)CC2)cc1` [Compound 12, 2-(4-(7H-pyrrolo[2,3-d]pyrimidin-4-yl)piperazin-1-yl)-N-(4-(N-propylsulfamoyl)phenyl)acetamide], the IC50 in test [1] was 500 to 1000 nM; in test [2], 500 to 1000 nM; in test [3] it was above 1000 nM; in test [4] it was below 250 nM. Also, the JAK1/JAK2 selectivity in test [4] is reported as 4.

For the compound `CCNS(=O)(=O)c1ccc(NC(=O)CN2CCN(c3ncnc4[nH]ccc34)CC2)cc1` [Compound 13, 2-(4-(7H-pyrrolo[2,3-d]pyrimidin-4-yl)piperazin-1-yl)-N-(4-(N-ethylsulfamoyl)phenyl)acetamide], the IC50 was above 1000 nM in test [1], above 1000 nM in test [2], above 1000 nM in test [3] and below 250 nM in test [4]. Further, in test [4], the JAK1/JAK2 selectivity was determined as 13.

On to `CNS(=O)(=O)c1ccc(N(C)C(=O)CN2CCN(c3ncnc4[nH]ccc34)CC2)cc1` [Compound 14, 2-(4-(7H-pyrrolo[2,3-d]pyrimidin-4-yl)piperazin-1-yl)-N-methyl-N-(4-(N-methylsulfamoyl)phenyl)acetamide], for which the IC50 in test [1] is above 1000 nM; in test [2] it was above 1000 nM; in test [3], above 1000 nM; in test [4] it was 250 to 500 nM. For the same compound, the JAK1/JAK2 selectivity in test [4] came out at 17.

With `CC(C)NS(=O)(=O)c1ccc(NC(=O)C(C)N2CCN(c3ncnc4[nH]ccc34)CC2)cc1` (centres unmarked) [Compound 17, 2-(4-(7H-pyrrolo[2,3-d]pyrimidin-4-yl)piperazin-1-yl)-N-(4-(N-isopropylsulfamoyl)phenyl)propenamide], the IC50 is above 1000 nM in test [1], above 1000 nM in test [2], above 1000 nM in test [3] and 250 to 500 nM in test [4]. Moreover, the JAK1/JAK2 selectivity in test [4] is recorded as 7.

On to `CC(C)NS(=O)(=O)c1ccc(NC(=O)[C@@H](C)N2CCN(c3ncnc4[nH]ccc34)CC2)cc1` [Compound 18, (R)-2-(4-(7H-pyrrolo[2,3-d]pyrimidin-4-yl)piperazin-1-yl)-N-(4-(N-isopropylsulfamoyl)phenyl)propanamide], for which the IC50 in test [1] was below 250 nM; in test [2], 500 to 1000 nM; in test [3] it was above 1000 nM; in test [4], 250 to 500 nM. Further, in test [4], the JAK1/JAK2 selectivity is 4.

Take `CC(C(=O)Nc1ccc(S(=O)(=O)N2CCCCC2)cc1)N1CCN(c2ncnc3[nH]ccc23)CC1` (centres unmarked) [Compound 20, 2-(4-(7H-pyrrolo[2,3-d]pyrimidin-4-yl)piperazin-1-yl)-N-(4-(piperidin-1-ylsulfonyl)phenyl)propenamide]: the IC50 in test [1] is above 1000 nM; in test [2], above 1000 nM; in test [3], 500 to 1000 nM; in test [4] it was 500 to 1000 nM. In addition, the JAK1/JAK2 selectivity in test [4] is 2.

In the case of `CNS(=O)(=O)C[C@H]1CC[C@H](N(C)c2ncnc3[nH]ccc23)CC1.O=C(O)/C=C\C(=O)O` [Oclacitinib, N-methyl[trans-4-(methyl-7H-pyrrolo[2,3-d]pyrimidin-4-ylamino)cyclohexyl]methanesulfonamide (2Z)-2-butenedioate], the “selectivity toward cJAK-2, cJAK-3, and cJAK-4 relative to cJAK-1” value in test [5] is “relatively low”. The values for the IC50 in test [6] and in test [7] were 10 nM and 36 to 249 nM, respectively.
